“And” between values parts separate entries of the source, which are not always exact repeats. Identical values can stand only once.
What was measured:
[1] = test system: Neuro 2A mouse neuroblastoma cells; assay: Cell toxicity: Neuro 2A cell viability (calcein-AM); format: cell-based; conditions: Neuro 2A cells, 30 μM, 24 h exposure
mouse liver COMT = target: T1, mouse liver COMT (Mus musculus, UniProt O88587); assay: Mouse liver COMT activity after oral administration of test compounds; format: in vivo; conditions: 3 mg/kg oral, 3 h after administration
T1 construct: Aliquots of 0.5 ml of liver homogenates were preincubated; from tissue; host or cells: mouse liver homogenate (NMRI mice, dosed orally; ex vivo activity)
T1 sequence (O88587 1-265): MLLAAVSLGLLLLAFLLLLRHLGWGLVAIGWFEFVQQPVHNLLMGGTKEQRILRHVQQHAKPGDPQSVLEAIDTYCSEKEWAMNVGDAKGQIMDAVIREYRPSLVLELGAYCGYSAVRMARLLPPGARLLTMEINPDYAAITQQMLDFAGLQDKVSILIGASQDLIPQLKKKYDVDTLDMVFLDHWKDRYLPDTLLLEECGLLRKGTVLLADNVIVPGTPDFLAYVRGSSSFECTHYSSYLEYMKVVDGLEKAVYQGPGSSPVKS

| SMILES | % of viable cells [1] | COMT activity (% of control) (mouse liver COMT; 3 mg/kg) | COMT activity (% of control) (mouse liver COMT) |
| --- | --- | --- | --- |
| Cc1noc(-c2cc(O)c(O)c([N+](=O)[O-])c2)n1 [Compound 1, 5-(3-methyl-1,2,4-oxadiazol-5-yl)-3-nitropyrocatechol, reference compound] | 55% and 55.1% | 59 % of control and 59.9 % of control | – |
| Cc1nc(-c2cc(O)c(O)c([N+](=O)[O-])c2)no1 [Compound 2, 5-(5-Methyl-[1,2,4]oxadiazol-3-yl)-3-nitro-benzene-1,2-diol] | 92.5% | 79 % of control and 78.8 % of control | – |
| Cc1nnc(-c2cc(O)c(O)c([N+](=O)[O-])c2)o1 [Compound 3, 5-(5-Methyl-[1,3,4]oxadiazol-2-yl)-3-nitro-benzene-1,2-diol] | 100.5% | 64 % of control and 63.6 % of control | – |
| O=[N+]([O-])c1cc(-c2nc(-c3cc[n+]([O-])cc3)no2)cc(O)c1O [Compound 4, 3-Nitro-5-[3-(1-oxy-pyridin-4-yl)-[1,2,4]oxadiazol-5-yl]-benzene-1,2-diol] | 98.3% | – | 42.1 % of control |
| O=[N+]([O-])c1cc(-c2nc(-c3ccc[n+]([O-])c3)no2)cc(O)c1O [Compound 5, 3-Nitro-5-[3-(1-oxy-pyridin-3-yl)-[1,2,4]oxadiazol-5-yl]-benzene-1,2-diol] | 93.8% | – | 58.4 % of control |
| O=[N+]([O-])c1cc(-c2nc(-c3cccc[n+]3[O-])no2)cc(O)c1O [Compound 6, 3-Nitro-5-[3-(1-oxy-pyridin-2-yl)-[1,2,4]oxadiazol-5-yl]-benzene-1,2-diol] | 107.1% | – | 101.0 % of control |
| O=[N+]([O-])c1cc(-c2nc(-c3c(Cl)c[n+]([O-])cc3Cl)no2)cc(O)c1O [Compound 7, 5-[3-(3,5-Dichloro-1-oxy-pyridin-4-yl)-[1,2,4]oxadiazol-5-yl]-3-nitro-benzene-1,2-diol] | 56.9% | – | 14.2 % of control |
| O=[N+]([O-])c1cc(-c2nc(-c3cc[n+]([O-])c(Cl)c3)no2)cc(O)c1O [Compound 8, 5-[3-(2-Chloro-1-oxy-pyridin-4-yl)-[1,2,4]oxadiazol-5-yl]-3-nitro-benzene-1,2-diol] | 106.7% | – | 55.4 % of control |
| O=[N+]([O-])c1cc(-c2nc(-c3cc[n+]([O-])c(-c4ccccc4)c3)no2)cc(O)c1O [Compound 9, 3-Nitro-5-[3-(1-oxy-2-phenyl-pyridin-4-yl)-[1,2,4]oxadiazol-5-yl]-benzene-1,2-diol] | 79.7% | – | 80.6 % of control |
| O=[N+]([O-])c1cc(-c2nc(-c3cc[n+]([O-])c(-c4ccoc4)c3)no2)cc(O)c1O [Compound 10, 5-[3-(2-Furan-3-yl-1-oxy-pyridine-4-yl)-[1,2,4]oxadiazol-5-yl]-3-nitro-benzene-1,2-diol] | 69.3% | – | 95.2 % of control |
| O=[N+]([O-])c1cc(-c2nc(-c3cc[n+]([O-])c(N4CCOCC4)c3)no2)cc(O)c1O [Compound 11, 5-[3-(2-Morpholin-4-yl-1-oxy-pyridine-4-yl)-[1,2,4]oxadiazol-5-yl]-3-nitro-benzene-1,2-diol] | 105.7% | – | 63.9 % of control |
| O=[N+]([O-])c1cc(-c2nc(-c3cc[n+]([O-])c(N4CCSCC4)c3)no2)cc(O)c1O [Compound 12, 3-Nitro-5-[3-(1-oxy-2-thiomorpholin-4-yl-pyridin-4-yl)-[1,2,4]oxadiazol-5-yl]-benzene-1,2-diol] | 91.7% | – | 92.9 % of control |
| O=[N+]([O-])c1cc(-c2nc(-c3cc[n+]([O-])c(Sc4ccccc4)c3)no2)cc(O)c1O [Compound 13, 3-Nitro-5-[3-(1-oxy-2-phenylsulfanyl-pyridin-4-yl)-[1,2,4]oxadiazol-5-yl]-benzene-1,2-diol] | – | – | 102.3 % of control |
| O=[N+]([O-])c1cc(-c2nc(-c3cc[n+]([O-])c(Oc4ccccc4)c3)no2)cc(O)c1O [Compound 14, 3-Nitro-5-[3-(1-oxy-2-phenoxy-pyridin-4-yl)-[1,2,4]oxadiazol-5-yl]-benzene-1,2-diol] | 83.5% | – | 76.8 % of control |
| Cc1cc(-c2noc(-c3cc(O)c(O)c([N+](=O)[O-])c3)n2)cc(C)[n+]1[O-] [Compound 15, 5-[3-(2,6-Dimethyl-1-oxy-pyridine-4-yl)-[1,2,4]oxadiazol-5-yl]-3-nitro-benzene-1,2-diol] | 97.1% | – | 79.2 % of control |
| CS(=O)(=O)c1cc(-c2noc(-c3cc(O)c(O)c([N+](=O)[O-])c3)n2)cc[n+]1[O-] [Compound 16, 5-[3-(2-Methanesulfonyl-1-oxy-pyridine-4-yl)-[1,2,4]oxadiazol-5-yl]-3-nitro-benzene-1,2-diol] | 64.6% | – | 85.9 % of control |
| CSc1cc(-c2noc(-c3cc(O)c(O)c([N+](=O)[O-])c3)n2)cc[n+]1[O-] [Compound 17, 5-[3-(2-Methylsulfanyl-1-oxy-pyridine-4-yl)-[1,2,4]oxadiazol-5-yl]-3-nitro-benzene-1,2-diol] | 96.0% | – | 89.9 % of control |
| O=[N+]([O-])c1cc(-c2nc(-c3cc(Br)c[n+]([O-])c3)no2)cc(O)c1O [Compound 19, 5-[3-(5-Bromo-1-oxy-pyridin-3-yl)-[1,2,4]oxadiazol-5-yl]-3-nitro-benzene-1,2-diol] | 100.1% | – | 45.2 % of control |
| Cc1ccc(-c2noc(-c3cc(O)c(O)c([N+](=O)[O-])c3)n2)c[n+]1[O-] [Compound 20, 5-[3-(6-Methyl-1-oxy-pyridin-3-yl)-[1,2,4]oxadiazol-5-yl]-3-nitro-benzene-1,2-diol] | – | – | 56.6 % of control |
| Cc1cc[n+]([O-])cc1-c1noc(-c2cc(O)c(O)c([N+](=O)[O-])c2)n1 [Compound 21, 5-[3-(4-Methyl-1-oxy-pyridin-3-yl)-[1,2,4]oxadiazol-5-yl]-3-nitro-benzene-1,2-diol] | – | – | 95.6 % of control |
| O=[N+]([O-])c1cc(-c2nc(-c3cc(-c4ccccc4)c[n+]([O-])c3)no2)cc(O)c1O [Compound 22, 3-Nitro-5-[3-(1-oxy-5-phenyl-pyridin-3-yl)-[1,2,4]oxadiazol-5-yl]-benzene-1,2-diol] | – | – | 111.6 % of control |
| O=[N+]([O-])c1cc(-c2nc(-c3ccc(Cl)[n+]([O-])c3)no2)cc(O)c1O [Compound 23, 5-[3-(6-Chloro-1-oxy-pyridin-3-yl)-[1,2,4]oxadiazol-5-yl]-3-nitro-benzene-1,2-diol] | 41.1% | – | 43 % of control |
| O=[N+]([O-])c1cc(-c2nc(-c3ccc[n+]([O-])c3Cl)no2)cc(O)c1O [Compound 24, 5-[3-(2-Chloro-1-oxy-pyridin-3-yl)-[1,2,4]oxadiazol-5-yl]-3-nitro-benzene-1,2-diol] | 93.7% | – | 71.8 % of control |
| Cc1ccc(-c2noc(-c3cc(O)c(O)c([N+](=O)[O-])c3)n2)c(Cl)[n+]1[O-] [Compound 25, 5-[3-(2-Chloro-6-methyl-1-oxy-pyridin-3-yl)-[1,2,4]oxadiazol-5-yl]-3-nitro-benzene-1,2-diol] | 100.2% | – | 23.1 % of control |
| O=[N+]([O-])c1cc(-c2nc(-c3ccc[n+]([O-])c3N3CCOCC3)no2)cc(O)c1O [Compound 26, 5-[3-(2-Morpholin-4-yl-1-oxy-pyridin-3-yl)-[1,2,4]oxadiazol-5-yl]-3-nitro-benzene-1,2-diol] | 110.9% | – | 35.5 % of control |
| CSc1ccc(-c2noc(-c3cc(O)c(O)c([N+](=O)[O-])c3)n2)c[n+]1[O-] [Compound 27, 5-[3-(6-Methylsulfanyl-1-oxy-pyridin-3-yl)-[1,2,4]oxadiazol-5-yl]-3-nitro-benzene-1,2-diol] | 95.7% | – | 47.5 % of control |
| O=[N+]([O-])c1cc(-c2nc(-c3ccc(C(F)(F)F)[n+]([O-])c3)no2)cc(O)c1O [Compound 28, 3-Nitro-5-[3-(1-oxy-6-trifluoromethyl-pyridin-3-yl)-[1,2,4]oxadiazol-5-yl]-benzene-1,2-diol] | 87.0% | – | 11.3 % of control |
| O=[N+]([O-])c1cc(-c2nc(-c3cc[n+]([O-])c4ccccc34)no2)cc(O)c1O [Compound 34, 3-Nitro-5-[3-(1-oxy-quinolin-4-yl)-[1,2,4]oxadiazol-5-yl]-benzene-1,2-diol] | – | – | 88.6 % of control |
| O=[N+]([O-])c1cc(-c2nc(-c3cc4ccccc4[n+]([O-])c3)no2)cc(O)c1O [Compound 35, 3-Nitro-5-[3-(1-oxy-quinolin-3-yl)-[1,2,4]oxadiazol-5-yl]-benzene-1,2-diol] | – | – | 81.2 % of control |
| O=[N+]([O-])c1cc(-c2nc(COc3ccc(C(F)(F)F)c[n+]3[O-])no2)cc(O)c1O [Compound 44, 3-Nitro-5-[3-(1′-oxy-5-trifluoromethyl-pyridin-2-yloxymethyl)-[1,2,4]oxadiazol-5-yl]-benzene-1,2-diol] | – | – | 24.5 % of control |

— US20200102295A1, “NITROCATECHOL DERIVATIVES AS COMT INHIBITORS” (BIAL - PORTELA & CA, S.A., priority 2005, published 2020)
